Test results taken from patent US20240199546A1, “INHIBITORS OF SOLUTE CARRIER FAMILY 6A MEMBER 19 (SLC6A19) AND METHODS OF USE THEREOF” (Maze Therapeutics, Inc., priority 2022, published 2024).

Target: T1, human SLC6A19 and TMEM27 (Homo sapiens, UniProt Q695T7)
T1 construct: expressed in transfected cells
T1 sequence (Q695T7 1-634): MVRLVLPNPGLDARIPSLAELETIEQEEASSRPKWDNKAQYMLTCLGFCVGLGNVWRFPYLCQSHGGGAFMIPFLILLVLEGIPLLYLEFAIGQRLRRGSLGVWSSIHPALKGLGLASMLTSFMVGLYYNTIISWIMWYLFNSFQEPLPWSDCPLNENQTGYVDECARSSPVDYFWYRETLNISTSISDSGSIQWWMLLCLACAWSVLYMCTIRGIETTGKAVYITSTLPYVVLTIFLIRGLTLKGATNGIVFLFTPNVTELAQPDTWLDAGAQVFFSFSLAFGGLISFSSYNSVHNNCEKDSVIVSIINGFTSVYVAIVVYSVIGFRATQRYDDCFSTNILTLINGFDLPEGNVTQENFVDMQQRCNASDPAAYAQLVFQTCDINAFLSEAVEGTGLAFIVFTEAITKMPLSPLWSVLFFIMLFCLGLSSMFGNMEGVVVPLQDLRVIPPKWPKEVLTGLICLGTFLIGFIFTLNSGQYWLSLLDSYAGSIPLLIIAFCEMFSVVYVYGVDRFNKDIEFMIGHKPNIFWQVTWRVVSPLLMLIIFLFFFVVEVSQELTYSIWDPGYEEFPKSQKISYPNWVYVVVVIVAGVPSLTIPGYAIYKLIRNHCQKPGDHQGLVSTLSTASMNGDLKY
T1 sequence (Q9HBJ8 15-222 partner): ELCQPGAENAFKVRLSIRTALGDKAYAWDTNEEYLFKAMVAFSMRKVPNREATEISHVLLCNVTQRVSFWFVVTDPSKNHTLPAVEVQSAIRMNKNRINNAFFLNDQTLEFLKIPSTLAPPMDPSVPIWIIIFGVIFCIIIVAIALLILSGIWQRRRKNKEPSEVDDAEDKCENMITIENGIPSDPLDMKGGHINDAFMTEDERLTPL
Assay: Radiolabelled (3H) leucine uptake in CHO cells with doxycycline-inducible expression of human SLC6A19 and TMEM27 (Example B-1)
Format: cell-based
Details: CHO cells with doxycycline-inducible expression of human SLC6A19 and TMEM27, read-out: SLC6A19_Radioligand Uptake Assay IC50
How it was run: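 CHO cells were induced with doxycycline for 18 h at 37 °C, washed in HBSS, then exposed to compounds for 1 h: 8-point, 3-fold dilutions in duplicate, 0.5% DMSO final. Uptake measured by scintillation counting after 2 h shaking. Activity normalized with positive control as 0% and DMSO as 100%.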

Row | IC50 | Structure (SMILES)
1 | 118 nM | Cc1cc(COc2cc3[nH]c(CNC(=O)CC(F)F)cc3cc2Cl)on1 [Compound 519, N-((5-chloro-6-((3-methylisoxazol-5-yl)methoxy)-1H-indol-2-yl)methyl)-3,3-difluoropropanamide]
2 | 6730 nM | Cc1cc(COc2cc3[nH]c(CNC(=O)Cn4ccnn4)cc3cc2Cl)on1 [Compound 520, N-((5-chloro-6-((3-methylisoxazol-5-yl)methoxy)-1H-indol-2-yl)methyl)-2-(1H-1,2,3-triazol-1-yl)acetamide]
3 | > 7970 nM | Cc1cc(COc2cc3[nH]c(CNC(=O)Cn4cccn4)cc3cc2Cl)on1 [Compound 521, N-((5-chloro-6-((3-methylisoxazol-5-yl)methoxy)-1H-indol-2-yl)methyl)-2-(1H-pyrazol-1-yl)acetamide]
4 | 199 nM | Cc1cc(COc2cc3[nH]c(CNC(=O)c4ccno4)cc3cc2Cl)on1 [Compound 522, N-((5-chloro-6-((3-methylisoxazol-5-yl)methoxy)-1H-indol-2-yl)methyl)isoxazole-5-carboxamide]
5 | 1650 nM | Cc1cc(COc2cc3[nH]c(CNC(=O)[C@@H](C)CO)cc3cc2Cl)on1 [Compound 535, (S)-N-((5-chloro-6-((3-methylisoxazol-5-yl)methoxy)-1H-indol-2-yl)methyl)-3-hydroxy-2-methylpropanamide]
6 | 1360 nM | Cc1cc(COc2cc3[nH]c(CNC(=O)[C@H](C)CO)cc3cc2Cl)on1 [Compound 536, (R)-N-((5-chloro-6-((3-methylisoxazol-5-yl)methoxy)-1H-indol-2-yl)methyl)-3-hydroxy-2-methylpropanamide]
7 | 108 nM | Cc1cc(COc2cc3[nH]c(CNC(=O)[C@@H]4C[C@H]4F)cc3cc2Cl)on1 [Compound 537, (1S,2R)-N-((5-chloro-6-((3-methylisoxazol-5-yl)methoxy)-1H-indol-2-yl)methyl)-2-fluorocyclopropane-1-carboxamide]
8 | 59.4 nM | Cc1cc(COc2cc3[nH]c(CNC(=O)[C@H]4C[C@@H]4F)cc3cc2Cl)on1 [Compound 538, (1R,2S)-N-((5-chloro-6-((3-methylisoxazol-5-yl)methoxy)-1H-indol-2-yl)methyl)-2-fluorocyclopropane-1-carboxamide]
9 | 123 nM | Cc1cc(COc2cc3[nH]c(CNC(=O)[C@H]4C[C@H]4F)cc3cc2Cl)on1 [Compound 539, (1R,2R)-N-((5-chloro-6-((3-methylisoxazol-5-yl)methoxy)-1H-indol-2-yl)methyl)-2-fluorocyclopropane-1-carboxamide]
10 | 131 nM | Cc1cc(COc2cc3[nH]c(CNC(=O)[C@@H]4C[C@@H]4F)cc3cc2Cl)on1 [Compound 540, (1S,2S)-N-((5-chloro-6-((3-methylisoxazol-5-yl)methoxy)-1H-indol-2-yl)methyl)-2-fluorocyclopropane-1-carboxamide]
11 | 141 nM | O=C(NCc1cc2cc(Cl)c(OCc3cscn3)cc2[nH]1)[C@H]1C[C@H]1F [Compound 541, (1R,2R)-N-((5-chloro-6-(thiazol-4-ylmethoxy)-1H-indol-2-yl)methyl)-2-fluorocyclopropane-1-carboxamide]
12 | 123 nM | O=C(NCc1cc2cc(Cl)c(OCc3cscn3)cc2[nH]1)[C@@H]1C[C@@H]1F [Compound 542, (1S,2S)-N-((5-chloro-6-(thiazol-4-ylmethoxy)-1H-indol-2-yl)methyl)-2-fluorocyclopropane-1-carboxamide]
13 | 145 nM | O=C(NCc1cc2cc(Cl)c(OCc3cscn3)cc2[nH]1)[C@@H]1C[C@H]1F [Compound 543, (1S,2R)-N-((5-chloro-6-(thiazol-4-ylmethoxy)-1H-indol-2-yl)methyl)-2-fluorocyclopropane-1-carboxamide]
14 | 119 nM | O=C(NCc1cc2cc(Cl)c(OCc3cscn3)cc2[nH]1)[C@H]1C[C@@H]1F [Compound 544, (1R,2S)-N-((5-chloro-6-(thiazol-4-ylmethoxy)-1H-indol-2-yl)methyl)-2-fluorocyclopropane-1-carboxamide]

Continued, compound first:

Row | Structure (SMILES) | IC50
15 | CC1(C(=O)NCc2cc3cc(F)c(OCc4cscn4)cc3[nH]2)CCC1 [Compound 507, N-((5-fluoro-6-(thiazol-4-ylmethoxy)-1H-indol-2-yl)methyl)-1-methylcyclobutane-1-carboxamide] | 327 nM
16 | CC1(C(=O)NCc2cc3cc(OC(F)(F)F)c(OCc4ccon4)cc3[nH]2)CC1 [Compound 508, N-((6-(isoxazol-3-ylmethoxy)-5-(trifluoromethoxy)-1H-indol-2-yl)methyl)-1-methylcyclopropane-1-carboxamide] | 293 nM
17 | CC1(C(=O)NCc2cc3cc(OC(F)(F)F)c(CCc4cscn4)cc3[nH]2)CC1 [Compound 509, 1-methyl-N-((6-(2-(thiazol-4-yl)ethyl)-5-(trifluoromethoxy)-1H-indol-2-yl)methyl)cyclopropane-1-carboxamide] | 1520 nM
18 | CC1(C(=O)NCc2cc3cc(OC(F)(F)F)c(CCc4ccon4)cc3[nH]2)CC1 [Compound 510, N-((6-(2-(isoxazol-3-yl)ethyl)-5-(trifluoromethoxy)-1H-indol-2-yl)methyl)-1-methylcyclopropane-1-carboxamide] | 385 nM
19 | O=C(CN1CCC1)NCc1cc2cc(Cl)c(OCc3cscn3)cc2[nH]1 [Compound 512, 2-(azetidin-1-yl)-N-((5-chloro-6-(thiazol-4-ylmethoxy)-1H-indol-2-yl)methyl)acetamide] | 6780 nM
20 | O=C(CC(F)F)NCc1cc2cc(Cl)c(OCc3cscn3)cc2[nH]1 [Compound 513, N-((5-chloro-6-(thiazol-4-ylmethoxy)-1H-indol-2-yl)methyl)-3,3-difluoropropanamide] | 86.2 nM
21 | CC1(C(=O)NCc2cc3cc(OC(F)(F)F)c(CCc4cocn4)cc3[nH]2)CC1 [Compound 514, 1-methyl-N-((6-(2-(oxazol-4-yl)ethyl)-5-(trifluoromethoxy)-1H-indol-2-yl)methyl)cyclopropane-1-carboxamide] | 408 nM
22 | CCC(=O)NCc1cc2c(F)cc(OCc3cscn3)cc2[nH]1 [Compound 515, N-((4-fluoro-6-(thiazol-4-ylmethoxy)-1H-indol-2-yl)methyl)propionamide] | 116 nM
23 | O=C(CC(F)F)NCc1cc2cc(F)c(OCc3cscn3)cc2[nH]1 [Compound 516, 3,3-difluoro-N-((5-fluoro-6-(thiazol-4-ylmethoxy)-1H-indol-2-yl)methyl)propanamide] | 88.9 nM
24 | CCC(=O)NCc1cc2c(F)cc(OCc3ccon3)cc2[nH]1 [Compound 517, N-((4-fluoro-6-(isoxazol-3-ylmethoxy)-1H-indol-2-yl)methyl)propionamide] | 243 nM
25 | Cc1cc(COc2cc3[nH]c(CNC(=O)CC(F)F)cc3cc2F)on1 [Compound 518, 3,3-difluoro-N-((5-fluoro-6-((3-methylisoxazol-5-yl)methoxy)-1H-indol-2-yl)methyl)propanamide] | 179 nM
26 | CC(=O)NCc1cc2c(F)cc(OCc3cscn3)cc2[nH]1 [Compound 525, N-((4-fluoro-6-(thiazol-4-ylmethoxy)-1H-indol-2-yl)methyl)acetamide] | 157 nM
27 | CC1(C(=O)NCc2cc3c(F)c(F)c(OCc4cscn4)cc3[nH]2)CC1 [Compound 526, N-((4,5-difluoro-6-(thiazol-4-ylmethoxy)-1H-indol-2-yl)methyl)-1-methylcyclopropane-1-carboxamide] | 156 nM
28 | CC(=O)NCc1cc2c(F)cc(OCc3cc(C)no3)cc2[nH]1 [Compound 527, N-((4-fluoro-6-((3-methylisoxazol-5-yl)methoxy)-1H-indol-2-yl)methyl)acetamide] | 4610 nM
29 | O=C(NCc1cc2cc(Cl)c(OCc3cscn3)cc2[nH]1)C12CC(C1)C2 [Compound 552, N-((5-chloro-6-(thiazol-4-ylmethoxy)-1H-indol-2-yl)methyl)bicyclo[1.1.1]pentane-1-carboxamide] | 340 nM
30 | O=C(NCc1cc2cc(Cl)c(OCc3cscn3)cc2[nH]1)C1CC12CC2 (centres unmarked) [Compound 553, N-((5-chloro-6-(thiazol-4-ylmethoxy)-1H-indol-2-yl)methyl)spiro[2.2]pentane-1-carboxamide] | 342 nM
31 | O=C(CC(F)(F)F)NCc1cc2cc(Cl)c(OCc3cscn3)cc2[nH]1 [Compound 554, N-((5-chloro-6-(thiazol-4-ylmethoxy)-1H-indol-2-yl)methyl)-3,3,3-trifluoropropanamide] | 214 nM
32 | O=C(CC12CC(C1)C2)NCc1cc2cc(Cl)c(OCc3cscn3)cc2[nH]1 [Compound 555, 2-(bicyclo[1.1.1]pentan-1-yl)-N-((5-chloro-6-(thiazol-4-ylmethoxy)-1H-indol-2-yl)methyl)acetamide] | 3040 nM
